Laboratory results taken from ChEMBL document CHEMBL1201862, “PubChem BioAssay data set” (2004).
The source made the active and inactive calls.

How the values were obtained:
[1] = target: DNA (cytosine-5)-methyltransferase 1 (Homo sapiens, UniProt P26358); experiment: DNMT1 methyltransferase inhibitors, confirmation, biochemical, fluorescent molecular beacon (AID 602386); format: functional
Estrogen receptor = target: T1, Estrogen receptor (Homo sapiens, UniProt P03372); experiment: potentiators of ERα–SRC-1 coactivator binding, dose response, biochemical, TR-FRET, ERα LBD (AID 737)
T1 sequence (P03372 whole entry): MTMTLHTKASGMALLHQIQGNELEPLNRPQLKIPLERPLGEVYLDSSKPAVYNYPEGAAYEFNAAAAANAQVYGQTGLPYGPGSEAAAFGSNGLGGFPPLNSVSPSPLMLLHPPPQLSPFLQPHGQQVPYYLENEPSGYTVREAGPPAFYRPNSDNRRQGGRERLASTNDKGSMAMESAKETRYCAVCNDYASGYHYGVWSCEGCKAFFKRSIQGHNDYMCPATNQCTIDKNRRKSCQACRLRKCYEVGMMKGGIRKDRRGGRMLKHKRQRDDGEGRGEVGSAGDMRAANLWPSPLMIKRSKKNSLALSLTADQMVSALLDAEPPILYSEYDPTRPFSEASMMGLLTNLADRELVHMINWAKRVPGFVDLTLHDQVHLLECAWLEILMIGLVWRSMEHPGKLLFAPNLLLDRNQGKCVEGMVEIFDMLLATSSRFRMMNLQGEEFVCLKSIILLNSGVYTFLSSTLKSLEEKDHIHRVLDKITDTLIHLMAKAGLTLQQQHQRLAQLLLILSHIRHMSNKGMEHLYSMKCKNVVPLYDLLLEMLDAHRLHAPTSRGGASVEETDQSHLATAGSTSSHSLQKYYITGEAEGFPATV

[2] = Luminescence Cell-Based Dose Response HTS to Identify Inhibitors of 5'UTR Stem-Loop Driven Prion Protein mRNA Translation in H4 Neuroglioblastoma Cells. [Related pubchem assays: 1827 (Project Summary), 1813 (Primary HTS)]; format: functional
BJ [3] = experiment: cytotoxicity toward BJ-TERT-LT-ST fibroblasts, dose response, cell-based, RAS-independent, luminescence (AID 1935); format: functional; conditions: Homo sapiens;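 also: BJ fibroblasts immortalized with TERT plus LT and ST oncogenes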
[4] = inhibitors of firefly luciferase expression or activity, dose response, H4 neuroglioma cells, luminescence (AID 1990); format: functional, cell-based
BJ [5] = experiment: cytotoxicity toward BJ-TERT fibroblasts, dose response, cell-based, RAS-independent, luminescence (AID 1933); format: functional; conditions: Homo sapiens
[6] = cytotoxicity toward DRD oncogenic fibroblasts, dose response, cell-based, non-viral oncogenic, luminescence (AID 1934); format: functional; conditions: Homo sapiens
[7] = target: Luciferin 4-monooxygenase (Photinus pyralis, UniProt P08659); experiment: Counter Screen for Luciferase-based Assay Positives. [Related pubchem assays: 620, 618, 411 ]
[8] = target: Mitochondrial peptide methionine sulfoxide reductase (Bos taurus, UniProt P54149); format: functional;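 also: absorbance read-out, biochemical high-throughput dose-response screen for MsrA inhibitors, confirmatory; recombinant bovine MsrA coupled to E. coli TrxB with NADPH and selenocystamine; potency is for inhibitors of MsrA activity on DMSO substrate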
BJ [9] = experiment: cells; format: functional, cell-based; conditions: Homo sapiens
Hexokinase HKDC1 = target: T2, Hexokinase HKDC1 (Homo sapiens, UniProt Q2TB90); experiment: HKDC1 hexokinase inhibitors, dose response, biochemical, W721R variant (AID 504729); format: functional
T2 sequence (Q2TB90 whole entry): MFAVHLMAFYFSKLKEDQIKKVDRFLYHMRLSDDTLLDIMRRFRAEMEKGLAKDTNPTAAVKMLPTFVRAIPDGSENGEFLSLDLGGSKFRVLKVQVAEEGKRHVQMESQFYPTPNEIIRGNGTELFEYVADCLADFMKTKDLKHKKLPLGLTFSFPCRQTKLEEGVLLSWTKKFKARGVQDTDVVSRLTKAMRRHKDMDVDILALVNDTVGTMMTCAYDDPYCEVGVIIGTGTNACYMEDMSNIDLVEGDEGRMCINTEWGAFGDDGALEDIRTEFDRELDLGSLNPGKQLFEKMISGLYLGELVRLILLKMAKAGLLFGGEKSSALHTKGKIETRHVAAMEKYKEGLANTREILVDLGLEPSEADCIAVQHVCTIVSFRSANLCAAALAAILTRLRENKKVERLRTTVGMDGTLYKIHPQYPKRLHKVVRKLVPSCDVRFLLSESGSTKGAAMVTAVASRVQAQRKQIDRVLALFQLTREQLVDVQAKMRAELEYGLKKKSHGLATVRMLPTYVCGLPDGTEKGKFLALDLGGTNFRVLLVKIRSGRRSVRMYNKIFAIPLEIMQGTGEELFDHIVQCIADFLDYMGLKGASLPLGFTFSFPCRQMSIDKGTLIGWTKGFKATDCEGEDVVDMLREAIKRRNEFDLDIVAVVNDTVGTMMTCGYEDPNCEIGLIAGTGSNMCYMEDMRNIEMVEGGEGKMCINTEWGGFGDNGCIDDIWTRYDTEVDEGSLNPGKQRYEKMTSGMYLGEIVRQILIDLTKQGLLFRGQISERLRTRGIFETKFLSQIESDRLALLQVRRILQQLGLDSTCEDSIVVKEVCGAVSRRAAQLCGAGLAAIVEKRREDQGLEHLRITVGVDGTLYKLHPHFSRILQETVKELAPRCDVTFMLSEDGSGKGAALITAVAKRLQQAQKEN

[10] = target: Mothers against decapentaplegic homolog 3 (Homo sapiens, UniProt P84022); experiment: SMAD3 transcription factor inhibitors, dose response (AID 715); format: functional
[11] = inhibitors of SNCA 5'UTR-driven reporter translation, confirmation, H4 neuroglioma cells, luminescence (AID 1988); format: functional, cell-based
[12] = Artemis endonuclease inhibitor potency, dose response, biochemical, fluorescence intensity (AID 720701); format: functional;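 also: Artemis endonuclease enzyme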
[13] = target: Tyrosyl-DNA phosphodiesterase 2 (Homo sapiens, UniProt O95551); experiment: human TDP2 enzyme inhibitors, dose response, biochemical, epi absorbance, IC50 (AID 743297)
[14] = target: T3, Apoptotic protease-activating factor 1 (Homo sapiens, UniProt O14727); format: functional
T3 sequence (O14727 whole entry): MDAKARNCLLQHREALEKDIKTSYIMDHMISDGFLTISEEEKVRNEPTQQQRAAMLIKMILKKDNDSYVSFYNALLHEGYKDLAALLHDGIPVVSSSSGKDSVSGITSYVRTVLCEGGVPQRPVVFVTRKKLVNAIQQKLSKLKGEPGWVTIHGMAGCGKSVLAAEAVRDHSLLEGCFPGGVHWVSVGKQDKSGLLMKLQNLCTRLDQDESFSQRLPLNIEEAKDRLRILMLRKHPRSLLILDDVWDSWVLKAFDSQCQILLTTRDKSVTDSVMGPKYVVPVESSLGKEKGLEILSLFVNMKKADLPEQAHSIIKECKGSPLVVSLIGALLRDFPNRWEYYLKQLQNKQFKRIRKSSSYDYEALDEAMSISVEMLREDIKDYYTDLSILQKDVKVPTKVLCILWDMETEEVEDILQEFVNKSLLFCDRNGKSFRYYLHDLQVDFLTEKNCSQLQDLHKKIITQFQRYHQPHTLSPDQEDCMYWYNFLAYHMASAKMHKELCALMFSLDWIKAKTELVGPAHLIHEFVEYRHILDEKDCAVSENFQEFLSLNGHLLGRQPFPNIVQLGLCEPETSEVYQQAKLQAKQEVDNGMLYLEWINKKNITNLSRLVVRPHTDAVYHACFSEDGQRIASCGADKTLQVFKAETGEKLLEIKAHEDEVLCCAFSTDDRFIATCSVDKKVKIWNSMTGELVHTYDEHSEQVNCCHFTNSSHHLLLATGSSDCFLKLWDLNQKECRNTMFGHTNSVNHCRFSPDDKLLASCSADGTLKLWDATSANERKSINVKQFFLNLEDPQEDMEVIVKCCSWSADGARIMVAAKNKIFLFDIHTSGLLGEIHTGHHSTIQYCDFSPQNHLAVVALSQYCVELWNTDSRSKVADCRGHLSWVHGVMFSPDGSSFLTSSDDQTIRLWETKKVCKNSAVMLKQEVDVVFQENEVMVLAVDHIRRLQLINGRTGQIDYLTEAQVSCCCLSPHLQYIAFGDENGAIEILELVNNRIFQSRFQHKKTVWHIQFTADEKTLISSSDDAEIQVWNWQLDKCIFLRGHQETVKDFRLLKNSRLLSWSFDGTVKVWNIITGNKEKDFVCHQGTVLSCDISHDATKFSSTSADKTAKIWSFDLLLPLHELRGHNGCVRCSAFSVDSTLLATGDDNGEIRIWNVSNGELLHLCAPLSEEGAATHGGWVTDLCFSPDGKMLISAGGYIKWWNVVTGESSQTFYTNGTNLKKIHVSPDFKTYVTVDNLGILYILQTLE

HT-1080 = experiment: cytotoxicity in HT1080 fibrosarcoma cells, cell-based, fluorescence readout (AID 620); format: functional; conditions: Homo sapiens
[15] = enhancers of respiration in Yfh1-depleted yeast, dose response, Friedreich's ataxia, plus single-dose screen (AID 1465); format: functional;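 also: yeast depleted of Yfh1p frataxin homolog grown on glycerol needing respiration; WST-1 tetrazolium dye reduction as measure of cellular dehydrogenase metabolic activity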
[16] = target: Induced myeloid leukemia cell differentiation protein Mcl-1 (Homo sapiens, UniProt Q07820); format: functional
[17] = THP-1 cell cytotoxicity, dose response, cytotoxicity control for Vif-APOBEC3G degradation inhibitor project, THP-1 cells (AID 1117359); format: functional; conditions: Human immunodeficiency virus 1, THP-1
[18] = target: T4, Mannose-6-phosphate isomerase (Homo sapiens, UniProt P34949); experiment: human PMI inhibitors, high substrate, primary screen, biochemical, fluorescence intensity, high mannose 6-phosphate (AID 1220)
T4 sequence (P34949 whole entry): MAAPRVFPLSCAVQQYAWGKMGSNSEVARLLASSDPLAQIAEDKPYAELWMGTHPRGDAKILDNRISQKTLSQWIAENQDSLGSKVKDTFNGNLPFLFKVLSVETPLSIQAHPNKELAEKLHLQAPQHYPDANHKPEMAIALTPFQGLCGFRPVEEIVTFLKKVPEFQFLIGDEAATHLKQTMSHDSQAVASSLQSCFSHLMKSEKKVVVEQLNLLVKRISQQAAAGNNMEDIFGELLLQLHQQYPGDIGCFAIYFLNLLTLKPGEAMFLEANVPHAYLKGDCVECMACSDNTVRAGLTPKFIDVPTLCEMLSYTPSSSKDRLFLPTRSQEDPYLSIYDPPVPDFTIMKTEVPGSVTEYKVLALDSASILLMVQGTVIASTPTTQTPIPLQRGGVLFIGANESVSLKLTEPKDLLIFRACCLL

NS3 = NS3 (Hepatitis C virus, UniProt A3EZJ3); experiment: PubChem AID 2173; parameters: species or system Hepacivirus hominis
NS3, sequence (A3EZJ3 whole entry): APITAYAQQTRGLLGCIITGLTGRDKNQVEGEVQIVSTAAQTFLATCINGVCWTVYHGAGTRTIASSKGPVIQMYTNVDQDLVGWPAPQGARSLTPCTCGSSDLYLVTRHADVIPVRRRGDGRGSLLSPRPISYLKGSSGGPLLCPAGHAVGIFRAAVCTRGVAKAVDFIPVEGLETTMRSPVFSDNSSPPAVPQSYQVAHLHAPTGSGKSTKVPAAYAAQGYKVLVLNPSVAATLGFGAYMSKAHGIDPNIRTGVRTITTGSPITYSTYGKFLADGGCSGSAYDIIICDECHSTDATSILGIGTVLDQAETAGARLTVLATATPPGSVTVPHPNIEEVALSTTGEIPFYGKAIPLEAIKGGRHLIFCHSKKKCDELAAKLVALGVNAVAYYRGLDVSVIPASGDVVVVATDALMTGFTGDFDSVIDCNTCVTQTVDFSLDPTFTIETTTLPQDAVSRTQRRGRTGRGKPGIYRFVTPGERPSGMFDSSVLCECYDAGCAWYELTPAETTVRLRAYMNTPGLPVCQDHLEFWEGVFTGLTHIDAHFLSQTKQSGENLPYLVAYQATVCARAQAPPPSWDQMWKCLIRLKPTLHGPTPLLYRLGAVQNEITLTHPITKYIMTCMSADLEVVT

Luciferin 4-monooxygenase, sequence (P08659 whole entry): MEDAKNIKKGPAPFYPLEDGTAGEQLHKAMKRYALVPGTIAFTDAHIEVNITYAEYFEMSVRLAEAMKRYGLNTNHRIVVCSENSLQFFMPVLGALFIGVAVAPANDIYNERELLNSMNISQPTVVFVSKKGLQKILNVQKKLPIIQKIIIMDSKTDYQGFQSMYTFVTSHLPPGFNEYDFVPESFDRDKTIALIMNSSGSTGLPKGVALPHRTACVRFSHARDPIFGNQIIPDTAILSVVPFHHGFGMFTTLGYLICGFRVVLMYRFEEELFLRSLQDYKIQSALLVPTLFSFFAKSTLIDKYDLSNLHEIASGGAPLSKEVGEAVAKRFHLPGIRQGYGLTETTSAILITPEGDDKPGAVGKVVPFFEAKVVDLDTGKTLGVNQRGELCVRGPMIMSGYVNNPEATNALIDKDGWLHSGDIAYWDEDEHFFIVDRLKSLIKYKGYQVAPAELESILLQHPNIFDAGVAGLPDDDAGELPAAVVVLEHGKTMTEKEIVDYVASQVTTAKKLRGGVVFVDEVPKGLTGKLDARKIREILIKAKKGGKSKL
Mothers against decapentaplegic homolog 3, sequence (P84022 whole entry): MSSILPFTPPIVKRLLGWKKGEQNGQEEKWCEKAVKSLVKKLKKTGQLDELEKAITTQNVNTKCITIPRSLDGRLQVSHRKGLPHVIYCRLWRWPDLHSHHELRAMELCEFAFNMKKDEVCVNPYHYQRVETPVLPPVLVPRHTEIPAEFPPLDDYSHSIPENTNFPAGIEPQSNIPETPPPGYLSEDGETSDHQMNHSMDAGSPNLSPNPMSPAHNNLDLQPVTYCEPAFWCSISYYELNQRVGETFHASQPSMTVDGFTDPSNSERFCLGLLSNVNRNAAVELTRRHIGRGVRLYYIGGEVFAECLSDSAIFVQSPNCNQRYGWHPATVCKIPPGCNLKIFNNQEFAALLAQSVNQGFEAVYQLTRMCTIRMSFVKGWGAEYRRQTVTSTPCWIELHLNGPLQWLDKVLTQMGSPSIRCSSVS
DNA (cytosine-5)-methyltransferase 1, sequence (P26358 whole entry, the tested form may be a part): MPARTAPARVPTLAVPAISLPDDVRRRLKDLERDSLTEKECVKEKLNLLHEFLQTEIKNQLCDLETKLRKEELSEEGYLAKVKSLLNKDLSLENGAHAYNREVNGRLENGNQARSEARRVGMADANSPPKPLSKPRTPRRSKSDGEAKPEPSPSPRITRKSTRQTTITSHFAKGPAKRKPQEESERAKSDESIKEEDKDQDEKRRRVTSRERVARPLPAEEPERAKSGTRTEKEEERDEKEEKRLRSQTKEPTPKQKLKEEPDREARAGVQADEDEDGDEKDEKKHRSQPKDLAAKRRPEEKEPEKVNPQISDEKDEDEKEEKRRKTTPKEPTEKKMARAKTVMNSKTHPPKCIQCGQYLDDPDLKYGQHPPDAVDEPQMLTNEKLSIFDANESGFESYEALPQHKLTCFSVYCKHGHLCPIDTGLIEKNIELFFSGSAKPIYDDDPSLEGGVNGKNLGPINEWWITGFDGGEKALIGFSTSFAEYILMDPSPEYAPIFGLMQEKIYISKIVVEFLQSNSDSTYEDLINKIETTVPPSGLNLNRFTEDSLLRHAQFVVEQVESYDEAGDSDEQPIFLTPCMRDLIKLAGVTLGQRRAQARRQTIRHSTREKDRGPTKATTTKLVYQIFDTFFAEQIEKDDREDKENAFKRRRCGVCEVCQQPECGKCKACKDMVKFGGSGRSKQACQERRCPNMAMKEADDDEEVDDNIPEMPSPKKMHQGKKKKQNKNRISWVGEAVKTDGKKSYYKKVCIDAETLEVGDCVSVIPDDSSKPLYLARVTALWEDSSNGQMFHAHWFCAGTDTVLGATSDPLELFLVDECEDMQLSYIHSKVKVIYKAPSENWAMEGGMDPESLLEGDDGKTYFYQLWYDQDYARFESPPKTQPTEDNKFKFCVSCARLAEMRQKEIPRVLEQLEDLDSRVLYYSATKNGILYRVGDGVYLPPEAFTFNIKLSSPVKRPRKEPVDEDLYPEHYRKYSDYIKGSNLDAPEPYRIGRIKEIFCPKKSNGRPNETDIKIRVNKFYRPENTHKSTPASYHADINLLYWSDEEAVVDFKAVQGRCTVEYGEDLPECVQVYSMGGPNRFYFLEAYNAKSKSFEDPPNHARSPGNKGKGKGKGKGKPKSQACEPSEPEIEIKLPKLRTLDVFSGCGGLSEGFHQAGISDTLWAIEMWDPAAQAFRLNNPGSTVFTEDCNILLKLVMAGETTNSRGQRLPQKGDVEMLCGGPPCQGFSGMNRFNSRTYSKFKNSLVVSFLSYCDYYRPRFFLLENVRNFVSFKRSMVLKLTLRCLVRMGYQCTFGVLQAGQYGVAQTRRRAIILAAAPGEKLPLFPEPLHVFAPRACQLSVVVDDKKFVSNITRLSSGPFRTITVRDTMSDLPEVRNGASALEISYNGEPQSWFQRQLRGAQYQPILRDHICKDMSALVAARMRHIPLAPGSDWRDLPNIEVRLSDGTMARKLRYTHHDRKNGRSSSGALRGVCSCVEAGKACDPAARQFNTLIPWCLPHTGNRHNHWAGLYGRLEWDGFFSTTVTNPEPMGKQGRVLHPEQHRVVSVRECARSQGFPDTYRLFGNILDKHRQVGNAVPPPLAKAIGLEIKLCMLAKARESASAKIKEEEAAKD
Tyrosyl-DNA phosphodiesterase 2, sequence (O95551 whole entry): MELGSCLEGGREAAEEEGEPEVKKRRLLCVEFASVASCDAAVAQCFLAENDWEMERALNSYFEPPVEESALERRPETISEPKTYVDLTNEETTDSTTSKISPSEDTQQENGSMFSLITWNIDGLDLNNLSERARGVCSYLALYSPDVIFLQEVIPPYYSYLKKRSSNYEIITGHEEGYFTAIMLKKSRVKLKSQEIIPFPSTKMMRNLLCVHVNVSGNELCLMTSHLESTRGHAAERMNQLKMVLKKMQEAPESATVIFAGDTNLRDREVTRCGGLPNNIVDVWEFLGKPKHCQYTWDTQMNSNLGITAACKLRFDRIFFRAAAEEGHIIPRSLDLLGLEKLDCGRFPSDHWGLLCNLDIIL
Mitochondrial peptide methionine sulfoxide reductase, sequence (P54149 whole entry): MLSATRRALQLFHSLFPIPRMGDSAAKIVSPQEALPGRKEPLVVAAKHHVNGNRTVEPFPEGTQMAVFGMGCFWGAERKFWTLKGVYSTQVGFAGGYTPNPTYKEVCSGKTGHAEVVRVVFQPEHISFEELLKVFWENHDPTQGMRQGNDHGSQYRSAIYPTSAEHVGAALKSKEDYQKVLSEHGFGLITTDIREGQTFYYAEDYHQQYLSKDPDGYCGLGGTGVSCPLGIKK
Induced myeloid leukemia cell differentiation protein Mcl-1, sequence (Q07820 whole entry): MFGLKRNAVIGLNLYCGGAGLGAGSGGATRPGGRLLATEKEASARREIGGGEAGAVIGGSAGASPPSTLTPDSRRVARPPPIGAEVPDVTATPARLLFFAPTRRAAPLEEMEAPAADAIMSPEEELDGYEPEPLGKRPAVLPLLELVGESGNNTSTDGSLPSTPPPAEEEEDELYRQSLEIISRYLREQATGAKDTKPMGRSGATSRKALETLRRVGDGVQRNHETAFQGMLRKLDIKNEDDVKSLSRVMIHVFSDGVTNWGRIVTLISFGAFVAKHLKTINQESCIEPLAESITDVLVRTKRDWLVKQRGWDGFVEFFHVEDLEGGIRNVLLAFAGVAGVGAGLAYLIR

For `O=C(CSc1nc2c(cnn2-c2ccccc2)c(=O)[nH]1)c1ccc(Cl)cc1`, the IC50 [1] was 9.12 µM (active) and the EC50 (Estrogen receptor) was 9.92 µM (active).

In the case of `O=C1C(N2CCOCC2)=C(n2nnc3ccccc32)C(=O)c2ccccc21`, the EC50 [2] is reported as 8.93 µM (active), the EC50 (BJ [3]) is reported as > 150 µM (inconclusive) and the EC50 [4] is reported as > 120 µM (not active). The EC50 (BJ [5]) was 8.79 µM (active), the EC50 [6] was 10.5 µM (active) and the EC50 [7] was 1.63 µM (active). The IC50 [8] was 9.33 µM (active), the EC50 (BJ [9]) was 5.06 µM (active) and the IC50 (Hexokinase HKDC1) was 7.01 µM (active). For the same compound, the IC50 [10] was 22 µM (active), the EC50 [11] was > 120 µM (not active) and the IC50 [12] was 7.75 µM (active). The IC50 [13] was 10 µM (inactive), the IC50 [14] was 4.02 µM (active) and the EC50 (HT-1080) was 12.3 µM (active).

In the case of `CCN(CC)S(=O)(=O)c1cccc(C(=O)N/N=C/c2ccc(O)c(O)c2O)c1`, the EC50 [15] is reported as > 100 µM (active), the IC50 [16] is reported as 7.33 µM (active) and the CC50 [17] is reported as > 40 µM (active). The IC50 [18] was 5.36 µM (active) and the IC50 (NS3) was 5.31 µM (active).
